Assay [1] has as its system HIV-1JRFL. It is filed as cell-based. To be noted: primary macrophages.
The subject of assay [2] is HIV-1BaL. Description: HIV-1BaL replication in primary macrophages, p24 antigen ELISA. It is filed as cell-based. Background: In an ELISA, binding on a coated surface is turned into a signal by an enzyme label.
The subject of assay [3] is HIV-1VSV. The assay is classed as cell-based.
Assay [4] relates to HDAC. Nature of the assay: Effect of sodium butyrate on ProTα activity in macrophages carrying integrated HIV-1. It is filed as cell-based. To be noted: data not presented. An excerpt: Moreover, both IkBα and ProTα can bind to HDAC and form intracellular complexes with DNA (51, 52). Therefore investigating the functions of these transcriptional factors and studying the competitive binding of HDAC to IkB and/or ProTα and chromatin immunoprecipitation studies may help to further reveal how ProTα inhibits HIV-1 transcription in primary macrophages.

Assay [5] has as its system HIV-1JRFL. The assay is classed as cell-based. The following applies: HeLa CD4+/CCR5+ cells.
Assay [6] concerns HIV-1JRFL. The assay is classed as cell-based. The following applies: Hos CD4+/CCR5+ cells; data not presented.
Assay [7] has as its system CCR5 tropic HIV-1 primary isolates. Nature of the assay: Replication of CCR5 HIV-1 primary isolate in primary macrophages, p24. It is filed as cell-based. To be noted: 200 ng/ml, p24 day 15.
For assay [8], the system named is dual tropic HIV-1 primary isolate. Description: Replication of dual tropic HIV-1 primary isolate in primary macrophages, p24. To be noted: 200 ng/ml, p24 day 15. The assay is classed as cell-based.
In assay [9] the test system is HIVVSV. The assay is classed as cell-based, HIV-1. To be noted: 200 ng/ml.
Assay [10] concerns HIV-1 LTR controlled luciferase reporter gene mRNA. Description: Real time RT-PCR of luciferase reporter gene mRNA in HIV-1VSV infected macrophages. It is filed as cell-based. To be noted: 200 ng/ml for 24 hr; 72 hr post infection; vs control medium. Here is the method:
(§1) RNA was isolated from macrophages infected with HIVVSV for 72 hr and treated with medium alone or ProTα 24 hr post treatment using Absolutely RNA kit (Stratagene). Real time PCR was done at Mount Sinai Medical Center Core Facility using following primers: […]
for Luciferase reporter gene: sense-[…] antisense-[…].
(§2) Each assay was performed in triplicate. Quantification of each PCR product was expressed relative to -actin.
In general terms: In qPCR the cycle at which signal appears reflects the starting amount.

In assay [11] the test system is STAT1. Description: STAT1 phosphorylation western blot, primary macrophages. It is filed as cell-based. To be noted: 15 min, ProTα 1 μg/mL or 10% conditioned medium. The protocol:
(§3) Whole cell extract from macrophages and Hela cells treated with 10% cell conditioned medium from CD8+ cells, ProTα or medium was prepared by adding 1×SDS Sample buffer (100 ul per 6 well plate). For western blot analyses, protein samples were treated with 2.5 M DTT or 2.5% 2-mercaptoethanol and separated by SDS-Page 4-20% Tris-Glycine gradient gels (Novex-Invitrogen Calif.). Following separation by SDS-Page, the gel was blotted onto PVDF membrane (Novex-Invitrogen San-Diego, Carlsbad, Calif.). After blocking with 5% nonfat milk the membrane was incubated with 1/1000 dilution of anti P-STAT-1 (Tyr701) (Cell Signaling Technology) for 24 hr at 4° C. in PBS. The membrane was washed in PBS with 0.05% Tween 20 and treated with 1/2000 diluted anti-rabbit antibodies labeled with horseradish […] (Amersham pharmacia UK). The membrane was washed in PBS with 0.05% tween 20 and Western blot chemiluminescence reagent was added.
(§4) To establish whether ProTα also induces STAT1 activation in primary macrophages and HeLa-CD4 cells, such cells were briefly (15 min) incubated with ProTα protein at 1 μg/mL or 10% cell conditioned medium after incubation for 2 hr in serum free medium to reduce baseline phosphorylation. A western blot of the electrophoresed total lysate of treated and untreated cells was probed with an antibody specific for STAT1 phosphorylated at tyrosine 701 (FIG. 8).

The subject of assay [12] is STAT1. Nature of the assay: STAT1 phosphorylation western blot, HeLa-CD4 cells. The following applies: 15 min, ProTα 1 μg/mL or 10% conditioned medium. The assay is classed as cell-based. The protocol:
as §3, §4

In assay [13] the test system is CMV promoter. Nature of the assay: Luciferase reporter under CMV promoter (VVCW/LBE) in macrophages. To be noted: 200 ng/ml at 48-72 hr post infection; 24 hr post treatment. It is filed as cell-based. The source says:
(§5) Inhibition of HIV-1 Gene Transcription by ProTα is not Selective for the HIV-1 LTR Promoter. To determine whether the effect of ProTα on HIV-1 gene transcription is specific for the LTR promoter, the present inventors used two other HIV derived lentiviral vectors carrying luciferase reporter genes under control of PGK (phosphoglycerate kinase-VVPW/LBE) or CMV (cytomegalovirus-VVCW/LBE) promoters (kindly provided by Dr. L. Gusella). Macrophages were infected with HIV-1VSV carrying the luciferase gene, under the control of LTR, PGK or CMV promoters. At 48-72 hr post infection when viral integration is completed, ProTα at 200 ng/ml was introduced.

Assay [14] concerns PGK promoter. Description: Luciferase reporter under PGK promoter (VVPW/LBE) in macrophages. To be noted: 200 ng/ml at 48-72 hr post infection; 24 hr post treatment. The assay is classed as cell-based.
Text: as §5
(In general: Reporter assays use an easily measured gene product as a stand-in for the process of interest.)

Assay [15] has as its system mC2,C3-Ba-L. Description: Replication of LTR-mutated mC2,C3-Ba-L in primary macrophages, p24. It is filed as cell-based, HIV-1. The following applies: 200 ng/ml, p24 days 6-10, 3 donors.
Assay [16] concerns HIV-1 lab isolates (HIV-1BaL and HIV-1IIIB) or HIV-1 primary isolates. Nature of the assay: HIV-1 replication in primary CD4+ cells (lab and primary isolates). The assay is classed as cell-based. To be noted: primary CD4+ cells; data not presented.
In assay [17] the test system is IkBα mRNA. Nature of the assay: IkBα mRNA by real time PCR in macrophages carrying integrated HIV. It is filed as cell-based. To be noted: data not presented. The protocol: as §1
for IkB sense-[…] anisense-[…].
as §2

Assay [18] concerns IkBα protein. Description: IkBα protein level in the nucleus of macrophages. The assay is classed as cell-based. To be noted: 1 hr post treatment, data not presented.
Assay [19] concerns STAT2. Description: STAT2 phosphorylation in treated macrophages. The following applies: supernatant 10% by volume, data not presented.
In assay [20] the test system is type one and/or two IFNs. Nature of the assay: Induction of type one and/or two IFN mRNA in primary macrophages. To be noted: 24 hr post treatment, data not presented.

The values below come from patent publication US7754687B2, “Methods of inhibiting viral infection” (Mount Sinai School of Medicine, priority 2005, dated 2010).

Read-outs that look alike come from different tables or passages of the source. No end group written: not given here.

Regarding “thymosin alpha 1 (Ac-SDAAVDTSSEITTKDLKEKKEVVEEAEN; UniProt P06454 2-29, looked up, fragment) [Tα1, chemically synthesized peptide homologous to the first 28 amino acids of ProTα, reference compound]”, the “activity against the HIVJRFL expressing luciferase reporter gene” value in assay [1] (up to 1 μg/mL) was “no activity”.

`O=C(O)C(=O)CC(=O)c1cccn1Cc1ccc(F)cc1` [L-731 988, reference compound]: the “suppression of virus replication by integrase inhibitor” value in assay [2] (added at 2 hr post infection, replication competent viruses) is “did not completely suppress virus replication”. The “effect on HIV-1 gene expression (luciferase)” value (“effect” for short) in assay [3] was “no effect”.

`Cc1cn([C@H]2C[C@H](N=[N+]=[N-])[C@@H](CO)O2)c(=O)[nH]c1=O` [AZT, azidothymidine, reference compound]: the “effect” value in [3] is on record as “no effect”.

Regarding `CCCC(=O)[O-].[Na+]` [sodium butyrate], the “reduction in ProTα activity” value in assay [4] is given as 70-80%.

In the case of prothymosin alpha [ProTα], the “reduction of viral p24 antigen” value in assay [2] (2 ng/mL rProTα, primary macrophages) was “greater than 80%”. Also, the “inhibition of wild type (LTR) virus” value in assay [2] (primary macrophages, 200 ng/ml, p24 days 6-10, 3 donors) is 90-95%. The “suppression of HIV-1BaL replication as measured by HIV-1 p24 antigen” value in assay [2] (primary macrophages, dose response) is reported as “dosage dependent suppression”. In assay [1] (dose response), the “inhibition of the luciferase reporter gene of HIV-1JRFL” value is on record as “dose dependent inhibition”. In addition, the “concentration at which anti-HIV-1 activity was exhibited (as low as)” value in [1] (luciferase 72 hr post infection) worked out at 20 ng/mL. Besides, the anti-HIV-1JRFL activity result in assay [5] is “did not, however, exhibit anti-HIV-1JRFL activity”; in [6], “did not, however, exhibit anti-HIV-1JRFL activity”. The “replication of CCR5 HIV-1 primary isolate” value in assay [7] is given as “inhibited replication”. In addition, in assay [8], the “replication of dual tropic HIV-1 primary isolate” value is “inhibited replication”. Also, in assay [9] (DCs treated 2 hr post infection), the “reduction of expression of the reporter gene luciferase” value is reported as 90%. The “inhibition of integrated proviral HIV-1” value in assay [9] (DCs treated 72 hr post infection) was 65-75%. Also, in assay [3], the “effect” value is listed as “inhibit HIV-1 gene expression”. Besides, the “expression of luciferase reporter gene from LTR promoter” value in [3] was “inhibited expression”. Moreover, the “reduction of HIV-1 gene expression” value in [3] is recorded as 80%. The “suppression of LTR controlled luciferase reporter gene mRNA levels” value in assay [10] is given as 80%. Further, the “phosphorylation state of STAT1 (Tyr701)” value in assay [11] and in [12] was “no effect” in each case. The “expression of luciferase reporter gene from CMV promoter” value in [13] is reported as “inhibited expression”. The “expression of luciferase reporter gene from PGK promoter” value in assay [14] is “inhibited expression”. Moreover, the “suppression of mutated (LTR) virus replication” value in [15] is 60-80%. Besides, the suppression of replication entry in assay [16] is reported as “varying from 30-40% suppression to no suppression”. In addition, the “induction of IkBα mRNA” value in assay [17] came to 10 fold. Further, the “level of IkBα protein in the nucleus” value in assay [18] is “increased substantially”. Besides, in [19], the “STAT 2 phosphorylation” value is listed as “did not induce STAT 2 phosphorylation”. For the same compound, the “induction of type one and/or two IFN mRNA” value in assay [20] is listed as “no induction”.
